Values after ≈ are worked out from the molar mass of the structure shown.
Columns and labels:
Assay in all cases: microbe, parasite or virus in culture
Assay type in all cases: cell-based, Mycobacterium tuberculosis
[1] = system: rifampin (RMP)-resistant Mtb (SRI 1367); details: for MIC: Mycobacterium tuberculosis, 168 h, read-out: MIC RMP-R, broth microdilution, 7 days at 37 °C
[2] = system: ofloxacin (OFX)-resistant Mtb (SRI 4000); details: for MIC: Mycobacterium tuberculosis, 168 h, read-out: MIC OFX-R, broth microdilution, 7 days at 37 °C; for MIC OFX-R: broth microdilution, 7 days at 37 °C
[3] = system: isoniazid (INH)-resistant Mtb (SRI 1369); details: for MIC: Mycobacterium tuberculosis, 168 h, read-out: MIC INH-R, broth microdilution, 7 days at 37 °C
[4] = broth microdilution, 7 days at 37 °C

| Structure (SMILES) | MIC [1] [µM] | MIC [2] [µM] | MIC OFX-R [2] [µM] | MIC [3] [µM] | MIC RMP-R [1, 4] [µM] | MIC INH-R [3, 4] [µM] |
| --- | --- | --- | --- | --- | --- | --- |
| NNC(=O)c1ccncc1 [INH, Isoniazid, reference compound] | 0.15 (≈ 0.0206 µg/mL) | – | – | – | – | – |
| Cc1cn(CC2CN(c3ccc(N4CCN(C(=O)CNC(=O)c5ccc([N+](=O)[O-])o5)CC4)c(F)c3)C(=O)O2)nn1 (stereo not drawn) [PH-145] | 0.11 to 0.46 (≈ 0.0612 to 0.256 µg/mL) | 0.03 to 0.056 (≈ 0.0167 to 0.0312 µg/mL) | 0.056 (≈ 0.0312 µg/mL) | 0.056 to 0.11 (≈ 0.0312 to 0.0612 µg/mL) | 0.11 (≈ 0.0612 µg/mL) | – |
| CCOC(=O)CC(=O)NCC(=O)N1CCN(c2ccc(N3CC(Cn4cc(C)nn4)OC3=O)cc2F)CC1 (stereo not drawn) [PH-150] | 2.9 (≈ 1.54 µg/mL) | 2.9 (≈ 1.54 µg/mL) | – | 2.9 (≈ 1.54 µg/mL) | – | – |
| Cc1cn(CC2CN(c3ccc(N4CCN(C(=O)CN)CC4)c(F)c3)C(=O)O2)nn1 (stereo not drawn) [PH-151] | 5.8 (≈ 2.42 µg/mL) | 11.6 (≈ 4.84 µg/mL) | – | 11.6 (≈ 4.84 µg/mL) | – | – |
| CC(=O)NCC(=O)N1CCN(c2ccc(N3CC(Cn4ccnn4)OC3=O)cc2F)CC1 (stereo not drawn) [PH-165] | 6.7 (≈ 2.98 µg/mL) | 3.4 (≈ 1.51 µg/mL) | – | 4.5 (≈ 2 µg/mL) | – | – |
| CCOC(=O)CC(=O)NCC(=O)N1CCN(c2ccc(N3CC(Cn4ccnn4)OC3=O)cc2F)CC1 (stereo not drawn) [PH-169] | 1.45 (≈ 0.75 µg/mL) | 1.45 (≈ 0.75 µg/mL) | – | 1.45 to 2.9 (≈ 0.75 to 1.5 µg/mL) | – | – |
| NCC(=O)N1CCN(c2ccc(N3CC(Cn4ccnn4)OC3=O)cc2F)CC1 (stereo not drawn) [PH-172] | 3.6 (≈ 1.45 µg/mL) | 3.6 (≈ 1.45 µg/mL) | – | 7.2 (≈ 2.9 µg/mL) | – | – |
| Cc1cn(CC2CN(c3ccc(N4CCN(C(=O)CNC(=O)c5cc([N+](=O)[O-])cc([N+](=O)[O-])c5)CC4)c(F)c3)C(=O)O2)nn1 (stereo not drawn) [PH-181] | 0.82 (≈ 0.501 µg/mL) | 0.82 (≈ 0.501 µg/mL) | – | 0.85 to 1.64 (≈ 0.52 to 1 µg/mL) | – | – |
| Cc1cn(CC2CN(c3ccc(N4CCN(C(=O)CNC(=O)C(Cl)Cl)CC4)c(F)c3)C(=O)O2)nn1 (stereo not drawn) [PH-182] | 0.95 (≈ 0.502 µg/mL) | 0.47 (≈ 0.248 µg/mL) | – | 0.95 (≈ 0.502 µg/mL) | – | – |
| Cc1cn(CC2CN(c3ccc(N4CCN(C(=O)CNC(=O)c5cccnc5)CC4)c(F)c3)C(=O)O2)nn1 (stereo not drawn) [PH-185] | 5.7 (≈ 2.98 µg/mL) | 1.44 (≈ 0.752 µg/mL) | – | 2.9 (≈ 1.52 µg/mL) | – | – |
| O=C(NCC(=O)N1CCN(c2ccc(N3CC(Cn4ccnn4)OC3=O)cc2F)CC1)c1ccc([N+](=O)[O-])o1 (stereo not drawn) [PH-189] | – | 0.03 to 0.056 (≈ 0.0163 to 0.0304 µg/mL) | 0.03 (≈ 0.0163 µg/mL) | 0.056 to 0.11 (≈ 0.0304 to 0.0597 µg/mL) | – | 0.057 to 0.12 |
| O=C(NCC(=O)N1CCN(c2ccc(N3CC(Cn4ccnn4)OC3=O)cc2F)CC1)c1cc([N+](=O)[O-])cc([N+](=O)[O-])c1 (stereo not drawn) [PH-193] | 0.22 (≈ 0.131 µg/mL) | 0.052 (≈ 0.0311 µg/mL) | – | 0.42 (≈ 0.251 µg/mL) | – | – |
| O=C(NCC(=O)N1CCN(c2ccc(N3CC(Cn4ccnn4)OC3=O)cc2F)CC1)c1cccnc1 (stereo not drawn) [PH-195] | 0.98 (≈ 0.498 µg/mL) | 0.49 (≈ 0.249 µg/mL) | – | 2 (≈ 1.02 µg/mL) | – | – |
| CO[C@H]1/C=C/O[C@@]2(C)Oc3c(C)c(O)c4c(O)c(c(/C=N/N5CCN(C)CC5)c(O)c4c3C2=O)NC(=O)/C(C)=C\C=C\[C@H](C)[C@H](O)[C@@H](C)[C@@H](O)[C@@H](C)[C@H](OC(C)=O)[C@@H]1C [RMP, Rifampicin, reference compound] | – | 0.95 (≈ 0.782 µg/mL) | – | 0.06 (≈ 0.0494 µg/mL) | – | – |
